Here are results for one compound from US20160177259A1, “[…]” (Evonik Degussa GmbH, priority 2014, published 2016).

Each structure is given as a SMILES string.

This assay concerns Clostridium ljungdahlii. The assay is described as follows: Autotrophic production in carbonate buffer on synthesis gas with 0.4 g/l or no L-cysteine HCl (Example 2). In kind it is cell-based. Conditions: for Acetate (NMR) / Ethanol (NMR) / OD600 / Δp: reactor 2, 0.4 g/L L-Cysteine-HCl. The procedure:
For the production, anaerobic carbonate buffer (adjusted with KOH 1.87 g/L) was used.
Identical autotrophic productions were carried out in 500 mL septum bottles with 100 mL of carbonate carried out in a shaking water bath shaker (open Innova 3100 by New Brunswick Scientific) at 100 min^−1. The productions were carried out at 37° C. with manual control of the pH. Once the pH dropped below 5.5, KOH was metered from a stock solution of 187 g/L. In the present experiments the pH in both reactors at points in time of 50.3 h and 73.3 h were taken and corrected by the addition of each 1.87 g/L KOH manually.
The reactors were inoculated with a synthesis gas mixture of 67% H2 and 33% CO2 pressurized with an overpressure of 0.8 bar. To replenish the consumed gas, the gas atmosphere was completely replaced once a day in the headspace of the reactors and again pressured to 0.8 bars.
The reactor 1 contained a concentration of L-cysteine HCl of 0 g/L, and reactor 2 a concentration of L-cysteine HCl of 0.4 g/L.
The reactors started with autotrophic cells at an OD of 0.2. The pre-culture was carried out continuously in a 1 L bottle with 500 ml of complex medium. The complex medium comprised of 1 g/l NH4Cl, 0.1 g/l KCl, 0.2 g/l MgSO4×7 H2O, 0.8 g/l NaCl, 0.1 g/l KH2PO4, 20 mg/l CaCl2×2 H2O, 20 g/l MES, 1 g/l yeast extract, 0.4 g/L L-cysteine HCl, 20 mg/l nitrilotriacetic acid, 10 mg/l MnSO4 H2O x, 8 mg/l (NH4)2Fe(SO4)2×6 H2O, 2 mg/L CoCl2×6 H2O, 2 mg/l ZnSO4×7 H2O, 0.2 mg/l CuCl2×2H2O, 0.2 mg/l Na2MoO4×2 H2O, 0.2 mg/l NiCl2×6 H2O, 0.2 mg/l Na2SeO4, 0.2 mg/l Na2WO4×2 H2O, 20 μg/l d-biotin, 20 μg/L folic acid, 100 μg/l pyridoxine HCl, 50 μg/l thiamine-HCl×H2O. 50 μg/l of riboflavin, 50 μg/l nicotinic acid, 50 μg/l Ca-pantothenate, 1 μg/L of vitamin B12, 50 μg/l p-aminobenzoate, 50 μg/l lipoic acid. The gassing of the culture with synthesis gas (67% H2, 33% CO2) was carried out continuously at a flow rate of 3 l/h over a filter with pore size of 10 microns. The cells were in late log phase of growth at an OD of 0.23 anaerobically centrifuged (4500 rpm, 4300 g, 20° C., 10 min). The supernatant was discarded and the cell pellet resuspended in 10 ml carbonate buffer. The prepared cells were then used to inoculate the actual experiments.
When sampling each 5 ml sample was removed for determination of 0D600, pH and the product range. The determination of the product concentration was performed by quantitative ^1H-NMR spectroscopy. As an internal quantification standard sodium trimethylsilylpropionate (T(M)SP) was used.

As for `Cl.N[C@@H](CS)C(=O)O` [L-Cysteine-HCl, L-cysteine hydrochloride], the “concentrations of ethanol and acetate formed” value (0.4 g/L compared with no L-cysteine-HCl, end of 98.8 h reaction time) is on record as “higher”. The “Acetate (NMR)” value (0.0 h) was 15 mg/L, the “Acetate (NMR)” value (26.0 h) is 1714 mg/L, the “Acetate (NMR)” value (50.3 h) is 2471 mg/L and the “Acetate (NMR)” value (98.8 h) is on record as 3366 mg/L. Further, the “Ethanol (NMR)” value reads like this: (0.0 h) 5 mg/L; (26.0 h) 21 mg/L; (50.3 h) 91 mg/L; (98.8 h) 84 mg/L. Besides, the OD600 by setting is: (0.0 h) 0.18; (26.0 h) 0.18; (50.3 h) 0.19; (74.3 h) 0.18; (98.8 h) 0.18. Further, the Δp runs as follows: (26.0 h) 0.6 bar; (50.3 h) 0.5 bar; (74.3 h) 0.4 bar; (98.8 h) 0.2 bar. Also, the gas consumption entry (reactor 2 with 0.4 g/L compared with 0 g/L L-cysteine-HCl, over 98.8 h) was “higher”.
